{
  "source": "patent US5204329A",
  "about": "“Treatment of organ transplantation rejection” (Du Pont Merck Pharmaceutical Company, priority 1990, dated 1993)",
  "key": {"[1]": {"system": "contact sensitivity response to 2,4-dinitrofluorobenzene (DNFB)", "assay": "Contact Sensitivity Response to DNFB in Mice (ear swelling)", "type": "in vivo, Balb/c female mice", "experimental": "Balb/c female mice ([…].20 g, Charles River) were sensitized on the shaved abdomen with 25 μl of 0.5% 2,4-dinitrofluorobenzene (DNFB, Eastman Kodak Co.) in a vehicle of 4:1 acetone:olive oil on days 0 and 1. Mice were ear challenged with 20 μl of 0.2% DNFB in a vehicle of 4:1 acetone:olive oil on day 5. An identical segment of the ear was measured immediately before challenge and 24 hours later with an engineer's micrometer. Ear swelling was expressed as the difference in ear thickness before and after challenge in units of 10^-4 inches±SEM. Percent suppression was calculated as: [formula] […] Control animals received only vehicle (0.25% Methocel®). Negative controls were not sensitized on days 0 and 1 but were ear challenged on day 5. Ten mice were used per group.\nContact sensitivity to DNFB is a form of delayed-type hypersensitivity which has been extensively studied to gain an understanding of the regulation of immunologic processes (Claman et. al. (1980), Immunological Rev. 50:105-132). This reaction is mediated by T lymphocytes that become sensitized to antigen by proliferating and developing into mature effector cells (Claman et. al. (1980), Immunological Rev. 105-132). This cell-mediated immune response (T-cell mediated immunity) is central to many disease states such as organ transplantation rejection and graft versus host disease (Benacerraf and Unanue (1979), Textbook of Immunology, Williams & Wilkins Co.,; Eisen (1980), Immunology, An Introduction to Molecular and Cellular Principles of the Immune Responses, Harper & Row, Inc.; Loveland and McKenzie (1982), Inflammation, Basic Principles and Clinical Correlates, Raven Press). […]"}, "[2]": {"settings": "known immunosuppressive agents; listed as AZA; cited from earlier work"}, "[3]": {"system": "dihydroorotate dehydrogenase", "settings": "consequent inhibition of pyrimidine nucleotide biosynthesis; Chen et al. (1986); cited from earlier work"}, "[4]": {"settings": "Table 1, 0.4 mg/kg oral, days 0-6"}, "[5]": {"settings": "Table 1, 2.0 mg/kg oral, days 0-6"}, "[6]": {"settings": "Table 1, 10.0 mg/kg oral, days 0-6"}, "[7]": {"settings": "Table 1, 20.0 mg/kg oral, days 0-6"}, "[8]": {"settings": "Table 4, dosing only day 0 and 1, 20.0 mg/kg"}},
  "note": "Where “and” joins values, the source holds several entries; their conditions need not be identical. Equal entries are not always repeated.",
  "data": [
    {"compound": "Cn1cnc([N+](=O)[O-])c1Sc1ncnc2nc[nH]c12", "note": "[Azathioprine, reference compound]", "values": [
      {"measurement": "Azathioprine ED50", "setting": "[1]; Table 3, Ex. 28 at 0 mg/kg", "result": 38.0, "unit": "mg/kg"},
      {"measurement": "Azathioprine ED50", "setting": "[1]; Table 3, with Ex. 28 at 0.1 mg/kg", "result": 42.0, "unit": "mg/kg"},
      {"measurement": "Azathioprine ED50", "setting": "[1]; Table 3, with Ex. 28 at 0.3 mg/kg", "result": 43.0, "unit": "mg/kg"},
      {"measurement": "Azathioprine ED50", "setting": "[1]; Table 3, with Ex. 28 at 1.0 mg/kg", "result": 7.5, "unit": "mg/kg"},
      {"measurement": "Azathioprine ED50", "setting": "[1]; Table 3, with Ex. 28 at 3.0 mg/kg", "result": "< 6.3", "unit": "mg/kg"},
      {"measurement": "Azathioprine ED50", "setting": "[1]; Table 3, with Ex. 28 at 10.0 mg/kg", "result": "< 6.3", "unit": "mg/kg"},
      {"measurement": "% Suppression of Ear Swelling", "setting": "[1]; agent alone, 6.3 mg/kg, days 0-6", "result": "2.5 ± 4.2", "unit": "%"},
      {"measurement": "% Suppression of Ear Swelling", "setting": "[1]; agent alone, 12.5 mg/kg, days 0-6", "result": "15.9 ± 3.3", "unit": "%"},
      {"measurement": "% Suppression of Ear Swelling", "setting": "[1]; agent alone, 12.5 mg/kg, days 0-6, listed as azathioprine", "result": 15.9, "unit": "%"},
      {"measurement": "% Suppression of Ear Swelling", "setting": "[1]; agent alone, 25.0 mg/kg, days 0-6", "result": "29.7 ± 4.1", "unit": "%"},
      {"measurement": "% Suppression of Ear Swelling", "setting": "[1]; agent alone, 50.0 mg/kg, days 0-6", "result": "72.1 ± 3.1", "unit": "%"},
      {"measurement": "% Suppression of Ear Swelling", "setting": "[1]; agent alone, 100.0 mg/kg, days 0-6", "result": "97.7 ± 1.6", "unit": "%"},
      {"measurement": "clinically observed toxicities / side effects", "setting": "[2]", "result": "nephrotoxicity and hepatoxicity"}
    ]},
    {"compound": "Cc1c(-c2ccc(-c3ccccc3F)cc2)nc2ccc(F)cc2c1C(=O)O", "note": "[Example 28, 2-(2'-fluoro-1,1'-biphenyl-4-yl)-6-fluoro-3-methyl-4-quinoline carboxylic acid]", "values": [
      {"measurement": "unique mechanism of action: inhibition of dihydroorotate dehydrogenase", "setting": "[3]", "result": "inhibition of dihydroorotate dehydrogenase"},
      {"measurement": "ED50", "setting": "[1]; Mus musculus, Table 1, agent alone, oral, days 0-6", "result": 0.95, "unit": "mg/kg"},
      {"measurement": "% Suppression", "setting": "[1]; [4]", "result": 30.20, "unit": "%"},
      {"measurement": "Ear Swelling (units ± SEM), increase in ear thickness from day 5 to day 6", "setting": "[1]; [4]", "result": "51.95 ± 2.33 10^-4 inches"},
      {"measurement": "% Suppression", "setting": "[1]; [5]", "result": 66.10, "unit": "%"},
      {"measurement": "Ear Swelling (units ± SEM), increase in ear thickness from day 5 to day 6", "setting": "[1]; [5]", "result": "25.61 ± 3.39 10^-4 inches"},
      {"measurement": "% Suppression", "setting": "[1]; [6]", "result": 92.28, "unit": "%"},
      {"measurement": "Ear Swelling (units ± SEM), increase in ear thickness from day 5 to day 6", "setting": "[1]; [6]", "result": "6.40 ± 1.09 10^-4 inches"},
      {"measurement": "% Suppression", "setting": "[1]; [7]", "result": 94.53, "unit": "%"},
      {"measurement": "Ear Swelling (units ± SEM), increase in ear thickness from day 5 to day 6", "setting": "[1]; [7]", "result": "4.75 ± 1.20 10^-4 inches"},
      {"measurement": "Ex. 28 ED50", "setting": "[1]; Table 2, with cyclosporin A 6.3 mg/kg", "result": 1.0, "unit": "mg/kg"},
      {"measurement": "Ex. 28 ED50", "setting": "[1]; Table 2, with cyclosporin A 12.5 mg/kg", "result": 0.8, "unit": "mg/kg"},
      {"measurement": "Ex. 28 ED50", "setting": "[1]; Table 2, with cyclosporin A 25.0 mg/kg", "result": 0.7, "unit": "mg/kg"},
      {"measurement": "Ex. 28 ED50", "setting": "[1]; Table 2, with cyclosporin A 30.0 mg/kg", "result": 0.4, "unit": "mg/kg"},
      {"measurement": "Ex. 28 ED50", "setting": "[1]; Table 2, with cyclosporin A 50.0 mg/kg", "result": 0.4, "unit": "mg/kg"},
      {"measurement": "Ex. 28 ED50", "setting": "[1]; Table 2, with cyclosporin A 70.0 mg/kg", "result": "< 0.3", "unit": "mg/kg"},
      {"measurement": "Ex. 28 ED50", "setting": "[1]; Table 3, with azathioprine 6.3 mg/kg", "result": 1.3, "unit": "mg/kg"},
      {"measurement": "Ex. 28 ED50", "setting": "[1]; Table 3, with azathioprine 12.5 mg/kg", "result": 0.8, "unit": "mg/kg"},
      {"measurement": "Ex. 28 ED50", "setting": "[1]; Table 3, with azathioprine 25.0 mg/kg", "result": 0.7, "unit": "mg/kg"},
      {"measurement": "Ex. 28 ED50", "setting": "[1]; Table 3, with azathioprine 50.0 mg/kg", "result": "< 0.1", "unit": "mg/kg"},
      {"measurement": "Ex. 28 ED50", "setting": "[1]; Table 3, with azathioprine 100.0 mg/kg", "result": "< 0.1", "unit": "mg/kg"},
      {"measurement": "% Suppression", "setting": "[1]; [8]", "result": 14.4, "unit": "%"},
      {"measurement": "ΔEar Swelling", "setting": "[1]; [8]", "result": "59.6 ± 2.5"},
      {"measurement": "Ex. 28 ED50", "setting": "[1]; Tables 2 and 3, cyclosporin A / azathioprine at 0 mg/kg", "result": 1.4, "unit": "mg/kg"},
      {"measurement": "% Suppression of Ear Swelling", "setting": "[1]; agent alone, 0.1 mg/kg, days 0-6, listed as Ex. 28, 0.1 mg/kg", "result": "6.5 ± 2.9% and 6.5 ± 2.8%"},
      {"measurement": "% Suppression of Ear Swelling", "setting": "[1]; agent alone, 0.3 mg/kg, days 0-6", "result": "7.3 ± 2.4", "unit": "%"},
      {"measurement": "% Suppression of Ear Swelling", "setting": "[1]; agent alone, 1.0 mg/kg, days 0-6", "result": 31.4, "unit": "%"},
      {"measurement": "% Suppression of Ear Swelling", "setting": "[1]; agent alone, 1.0 mg/kg, days 0-6, listed as Ex. 28, 1 mg/kg", "result": "31.4 ± 3.3", "unit": "%"},
      {"measurement": "% Suppression of Ear Swelling", "setting": "[1]; agent alone, 3.0 mg/kg, days 0-6", "result": "91.9 ± 2.3", "unit": "%"},
      {"measurement": "% Suppression of Ear Swelling", "setting": "[1]; agent alone, 10.0 mg/kg, days 0-6", "result": "93.9 ± 2.4", "unit": "%"}
    ]}
  ]
}
